Measured values: ChEMBL document CHEMBL1201862, “PubChem BioAssay data set” (2004)
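In this assay, cells in 96-well plates receive the compound at five concentrations for 48 hours. Endpoints are linearly interpolated between the surrounding concentrations. GI50: concentration for 50% inhibition of growth.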 Activity calls are given as the source filed them. No stated cut-off is given here; in the data, active = GI50 up to about 1.1 µM and inactive = higher.

Columns and labels:
Assay in all cases: inhibition of tumour cell growth, NCI panel, 48 h
U-251 = system: U-251
SF-539 = system: SF-539
HOP-62 = system: HOP-62
SW-620 = system: SW-620
LOX IMVI = system: LOX IMVI
HCC 2998 = system: HCC 2998
Malme-3M = system: Malme-3M
SK-OV-3 = system: SK-OV-3
OVCAR-5 = system: OVCAR-5
SK-MEL-2 = system: SK-MEL-2
SNB-75 = system: SNB-75
IGROV-1 = system: IGROV-1
NCI-H226 = system: NCI-H226
UO-31 = system: UO-31
DLD-1 = system: DLD-1
UACC-62 = system: UACC-62
ACHN = system: ACHN

SMILES	GI50 (U-251)	GI50 (SF-539)	GI50 (HOP-62)	GI50 (SW-620)	GI50 (LOX IMVI)	GI50 (HCC 2998)	GI50 (Malme-3M)	GI50 (SK-OV-3)	GI50 (OVCAR-5)	GI50 (SK-MEL-2)	GI50 (SNB-75)	GI50 (IGROV-1)	GI50 (NCI-H226)	GI50 (UO-31)	GI50 (DLD-1)	GI50 (UACC-62)	GI50 (ACHN)
CC1=C(C(=O)CC(=O)C(=O)Nc2ccccc2C)Sc2ccccc2N1	> 61.2 µM (inactive)	> 93.3 µM (inactive)	> 100 µM (inactive)	> 39.3 µM (inactive)	> 42.4 µM (inactive)	> 74.3 µM (inactive)	> 100 µM (inactive)	> 100 µM (inactive)	> 100 µM (inactive)	> 100 µM (inactive)	> 53.8 µM (inactive)	> 100 µM (inactive)	> 100 µM (inactive)	> 100 µM (inactive)	> 45.8 µM (inactive)	> 100 µM (inactive)	> 100 µM (inactive)
CN(C)C(=S)/N=c1\ssc(=S)n1Cc1ccncc1	14.7 µM (inactive)	21.2 µM (inactive)	24.9 µM (inactive)	16.5 µM (inactive)	19.8 µM (inactive)	21.1 µM (inactive)	16.3 µM (inactive)	25.2 µM (inactive)	40.8 µM (inactive)	17.2 µM (inactive)	13.6 µM (inactive)	17.9 µM (inactive)	> 100 µM (inactive)	15.5 µM (inactive)	16 µM (inactive)	10 µM (inactive)	29.8 µM (inactive)
CC1CC[C@]2(C(=O)O)CCC3(C)C(=CCC4[C@@]5(C)CC[C@H](OS(=O)(=O)c6ccccc6)C(C)(C)C5CC[C@]43C)[C@@H]2[C@H]1C (some centres undefined)	83.2 µM (inactive)	> 100 µM (inactive)	> 100 µM (inactive)	> 100 µM (inactive)	83 µM (inactive)	63.8 µM (inactive)	> 100 µM (inactive)	> 100 µM (inactive)	> 100 µM (inactive)	48.9 µM (inactive)	> 100 µM (inactive)	> 100 µM (inactive)	62.2 µM (inactive)	88.9 µM (inactive)	82 µM (inactive)	> 100 µM (inactive)	52.2 µM (inactive)
COc1cc([C@@H]2c3cc4c(cc3[C@@H](NC(=O)c3ccc([N+](=O)[O-])cc3)C3COC(=O)[C@@H]32)OCO4)cc(OC)c1O (some centres undefined)	0.108 µM (active)	0.275 µM (active)	0.128 µM (active)	0.147 µM (active)	0.318 µM (active)	1.22 µM (inactive)	0.817 µM (active)	0.334 µM (active)	1.87 µM (inactive)	2.83 µM (inactive)	0.809 µM (active)	0.261 µM (active)	0.104 µM (active)	2.63 µM (inactive)	1.38 µM (inactive)	0.241 µM (active)	0.194 µM (active)
NC1=NN(c2ccccc2)C(=O)C1/C(=N\NC(=O)c1cc2ccccc2cc1O)C(=O)Nc1ccc(Cl)cc1 (centres undefined)	31.5 µM (inactive)	23.9 µM (inactive)	36.6 µM (inactive)	32.1 µM (inactive)		28.9 µM (inactive)	30.8 µM (inactive)	51.5 µM (inactive)	31.4 µM (inactive)	23.2 µM (inactive)	4.72 µM (inactive)	20 µM (inactive)	23.6 µM (inactive)	21.8 µM (inactive)	21.6 µM (inactive)	19 µM (inactive)	26 µM (inactive)
Oc1ccc(Br)cc1/C=N/c1ccc(Oc2ccc(/N=C/c3cc(Br)ccc3O)cc2)cc1	> 19.6 µM (inactive)	> 19.6 µM (inactive)	> 19.6 µM (inactive)	> 19.6 µM (inactive)	> 19.6 µM (inactive)	> 19.6 µM (inactive)	> 19.6 µM (inactive)	> 19.6 µM (inactive)	> 19.6 µM (inactive)	> 19.6 µM (inactive)	> 19.6 µM (inactive)	> 19.6 µM (inactive)	> 19.6 µM (inactive)	> 19.6 µM (inactive)	> 19.6 µM (inactive)	> 19.6 µM (inactive)	> 19.6 µM (inactive)
COc1ccc(/C=C\c2cc(OC)c(OC)c(OC)c2)cc1	0.000284 µM (active)	0.000389 µM (active)	0.1 µM (active)	0.000237 µM (active)	0.000632 µM (active)	0.0385 µM (active)	0.00184 µM (active)	0.000726 µM (active)	43.5 µM (inactive)	< 0.01 µM (active)	0.000237 µM (active)	0.0387 µM (active)	0.000499 µM (active)	< 0.01 µM (active)	0.0004 µM (active)	< 0.0001 µM (active)	0.000653 µM (active)
CCO/C([O-])=C(\C(=O)c1ccc([N+](=O)[O-])cc1)[n+]1c(C)n(C)c2ccccc21	> 100 µM (inactive)	> 100 µM (inactive)	> 100 µM (inactive)	> 100 µM (inactive)	> 100 µM (inactive)	> 100 µM (inactive)	> 100 µM (inactive)	> 100 µM (inactive)	> 100 µM (inactive)	> 100 µM (inactive)	> 100 µM (inactive)	> 100 µM (inactive)	> 100 µM (inactive)	> 100 µM (inactive)	> 100 µM (inactive)	> 100 µM (inactive)	
